We go through three molecules from patent publication US10947196B2, “Beta adrenergic agonist and methods of using the same” (CURASEN THERAPEUTICS, INC., priority 2019, dated 2021).

What all share (type): in vitro ADME
The nature of data set [1]: Hepatocyte stability (rat). As to conditions: 0.5×10^6 viable cells/mL. The protocol:
10 mM and 100 μM stock solutions of test compound(s) and a positive control were prepared in appropriate solvent (DMSO). In separate conical tubes, the 10 mM test compound and the positive control were diluted to 100 μM by combining 198 μL of 50% acetonitrile/50% water and 2 μL of 10 mM stock. The 100 μM test compound and the positive control were diluted to 30 μM by combining 140 μL of 50% acetonitrile/50% water and 60 μL of 100 μM stock solution. The 100 μM test compound and the positive control were diluted to 10 μM by combining 180 μL of 50% acetonitrile/50% water and 20 μL of 100 μM stock solution. The 100 μM test compound and the positive control were diluted to 3 μM by combining 194 μL of 50% acetonitrile/50% water and 6 μL of 100 μM stock solution.
Incubation medium (William's E Medium supplemented with GlutaMAX) and hepatocyte thawing medium was placed in a 37° C. water bath, and allowed to warm for at least 15 minutes prior to use. A vial of cryopreserved hepatocytes from storage was then removed, ensuring that the vial remains at cryogenic temperatures until thawing process ensues. Cells were thawed by placing the vial in a 37° C. water bath and gently shaking the vial for 2 minutes. After thawing was completed, the vial was sprayed with 70% ethanol and transferred to a biosafety cabinet.
A wide-bore pipette tip was used to transfer hepatocytes into 50 mL conical tube containing thawing medium. The 50 mL conical tube was placed into a centrifuge and spun at 100 g for 10 minutes. Upon completion of spin, the thawing medium was aspirated and the hepatocytes were resuspended in enough incubation medium to yield ˜1.5×10^6 cells/mL.
Using AOPI staining solution, cells were counted and the viable cell density was determined. Cells with poor viability (<75% viability) are not acceptable for use. […]
All calculations were carried out using Microsoft Excel. Peak areas were determined from extracted ion chromatograms. […]
The in vitro half-life (in vitro t1/2) was determined from the slope value: in vitro t1/2=0.693/k

A short description of data set [2]: Plasma protein binding, equilibrium dialysis (human). As to conditions: pH 7.4, equilibrium dialysis 6 hours, read-out: PPB (human), percent of unbound fraction.
Data set [3] is described as follows: Plasma protein binding, equilibrium dialysis (rat). As to conditions: pH 7.4, equilibrium dialysis 6 hours, read-out: PPB (rat), percent of unbound fraction. The protocol: Preparation of 100 mM sodium phosphate and 150 mM NaCl buffer (PBS). A basic solution was prepared by dissolving 14.2 g/L Na2HPO4 and 8.77 g/L NaCl in deionized water and the solution could be stored at 4° C. for up to 7 days. An acidic solution was prepared by dissolving 12.0 g/L NaH2PO4 and 8.77 g/L NaCl in deionized water and the solution could be stored at 4° C. for up to 7 days. The basic solution was titrated with the acidic solution to pH 7.4 and store at 4° C. for up to 7 days. pH was checked on the day of experiment and was adjusted if outside specification of 7.4±0.1.
Thawing of the frozen plasma (stored at −80° C.). Frozen plasma was thawed immediately at room temperature. The plasma was centrifuged at 3,220 g for 10 minutes to remove clots and supernatant was collected into a fresh tube. The pH of the plasma was checked and recorded. Note: a). Only use plasma that has been thawed no more than twice since arrival. b). Only use plasma within the range of pH 7 to pH 8.
Preparation of working solutions. The working solutions of test compound and control compound ketoconazole were prepared in DMSO at the concentration of 200 μM. And then 3 μL of working solutions was removed to mix with 597 μL of rat plasma to achieve a final concentration of 1 μM (0.5% DMSO). Plasma samples were vortexed thoroughly.
Preparation of dialysis membranes. The dialysis membranes were soaked in ultrapure water for 60 minutes to separate strips, then in 20% ethanol for 20 minutes, finally in dialysis buffer for 20 minutes.
Procedure for equilibrium dialysis. The dialysis apparatus was assembled according to the manufacturer's instruction. Each Cell was filled with 120 μL of spiked plasma sample and dialyzed against equal volume of dialysis buffer (PBS). The assay was performed in duplicate. The dialysis plate was sealed and incubated in an incubator at 37° C. with 5% CO2 at 100 rpm for 6 hours. At the end of incubation, seal was removed and 50 μL of samples from both buffer and plasma chambers were transferred to wells of a 96-well plate.
Procedure for sample preparation. […]

Consider `Cc1ncccc1[C@@H](O)CNC(C)(C)C` [Compound 03-115], for which, in data set [1], the “Hepatocyte stability, Rat” value amounted to 20.61 μL/min/10^6 cells. Moreover, the fraction unbound (commonly free concentration divided by total concentration) at 6 h, 1 μM stood at 1 in data set [2] and 0.97 in data set [3].
`CC(C)(C)NC[C@H](O)c1cccc(C(F)(F)F)n1` [Compound 03-3]: in data set [1], the “Hepatocyte stability, Rat” value came to 4.59 μL/min/10^6 cells. For the same molecule, the fraction unbound at 6 h, 1 μM in data set [2] worked out at 0.89; in data set [3], 0.9.
`CC(C)(C)NC[C@H](O)c1cccc(C#N)n1` [Compound 03-5, (S)-6-(2-(tert-butylamino)-1-hydroxyethyl)picolinonitrile]: the “Hepatocyte stability, Rat” value in data set [1] is listed as 3.54-4.62 μL/min/10^6 cells. Also, the fraction unbound at 6 h, 1 μM in data set [2] and in data set [3] was 1 throughout.
